Results from US9365830B2, “Agents and methods for inhibiting human pluripotent stem cell growth” (VIACYTE, INC., priority 2010, dated 2016).

How the values were obtained:
Type in all cases: cell-based, human
[1] = system: pancreatic endoderm differentiations of hESCs; assay: Suspension aggregate differentiation to pancreatic endoderm after Stage 1 treatment, Q-PCR; settings: Stage 1 cultures treated with 0.1 μM Caffeic acid or 0.17 μM Ivermectin
Experimental: FIGS. 10A-10I are bar graphs showing the relative gene expression levels of OCT4 (FIG. 10A), MIXL (FIG. 10B), HNF1B (FIG. 10C), HNF4A (FIG. 10D), PAX4 (FIG. 10E), NGN3 (FIG. 10F), NKX2.2 (FIG. 10G), NKX6.1 (FIG. 10H), and PTF1A (FIG. 10I) after treatment of suspension aggregate cell cultures at Stages 1 with DMSO (Control), 0.1 μM Caffeic acid or 0.17 μM Ivermectin agents. Untreated control samples were collected at d0 and d1 (left panel). Treated samples were collected at d2, d3, d5, d7, d9, d11, and d13. The columns for each day of the treated samples are (from left to right): DMSO, Caffeic acid, and Ivermectin. The cultures were differentiated to the end of Stage 4. The results from an untreated, pancreatic endoderm differentiation are shown on the right, with samples collected on days 0, 1, 2, 5, 8, 10 and 14.
To further determine the effects of the above compounds (excluding those compounds that induced off-target differentiation), three selected compounds (chelerythrine chloride (FIGS. 5 & 6), caffeic acid and Ivermectin) were screened for effects on later stages of pancreatic differentiation, (such as Stages 2-5). Human ESCs were first differentiated through Stage 1 then to Stages 2 to 5 in suspension aggregate cultures similar to that above. Stage 1 cultures were treated with DMSO, caffeic acid or Ivermectin substantially as described above. Untreated control samples were collected at d0 (hESC) and d1 (FIG. 10, left panel), while treated samples were collected at days 2, 3, 5, 7, 9, 11 and 13 (FIG. 10 d2, d3, d5, d7, d9, d11 and d13 respectively). Gene expression levels in the collected samples were analyzed using Q-PCR and compared to the d0 (hESC) sample as well as qualified pancreatic endoderm (FIG. 10, right panel). The qualified pancreatic endoderm control consisted of about 50% pancreatic endoderm, about 46% endocrine cells and about 4% “other” cells as determined by flow cytometry. Neither caffeic acid nor Ivermectin affected survival, growth and/or proliferation of pancreatic endoderm differentiations. […] Typical gene expression levels for Stages 3, 4 and 5 cells were normal; for example, increased expression of NKX6.1 and PTF1A at Stage 4, pancreatic endoderm (FIGS. 10H and 10I), and of NGN3 and NKX2.2 at Stage 5, endocrine precursor and endocrine cells (FIGS. 10 F and 10G) was observed.

[2] = system: undifferentiated hESCs growing in adherent culture; assay: EC50 of cytotoxic effect on undifferentiated hESCs in adherent culture, real-time impedance assay; settings: undifferentiated hESCs, adherent culture, real-time impedance; read-out: EC50 concentrations for hES cells (cytotoxic effect)
Experimental: In summary, the final three (3) candidates identified from both the primary and secondary screens (EXAMPLE 1) and the full screen of the LOPAC1280™ collection (EXAMPLE 2) were Chelerythrine Chloride, Caffeic acid and Ivermectin. FIG. 11 lists the known or inferred mode(s) of action for these three compounds, as well as their structures. EC50 values for the respective cytotoxic effects on undifferentiated hESCs growing in adherent culture were determined using real-time impedance assays.
(§1) Depletion of OCT4-positive cells during Stage 1 differentiation was examined using the plating assay described above. Stage 1 differentiations of hES cells were treated from day 1 to 2 with the candidate compounds as described in Example 2 (chelerythrine chloride, caffeic acid and Ivermectin), at their EC50 concentrations for hES cells. Plated untreated and DMSO-treated aggregates were indistinguishable, and both contained discrete clusters of OCT4-positive cells. See FIG. 13A top and bottom panels for a DMSO treated example. The intensity of OCT4-positive staining in differentiating aggregate cell cultures treated with DMSO (control) was equivalent to undifferentiated hES cells.

[3] = system: OCT4-positive cells in Stage 1 differentiations of hES cells; assay: Plating assay for depletion of OCT4-positive cells in Stage 1 suspension aggregates, OCT4 immunostaining; settings: treated day 1 to 2 of Stage 1 at EC50 concentration; plated 24 hours in hESC medium; vs untreated or DMSO
Experimental: Human ES cell suspension aggregates were formed in rotational culture as described previously and differentiated through Stage 1 (definitive endoderm). About 20-30 aggregates were then plated per well in 4-well tissue culture dishes coated with MATRIGEL· diluted 1:200, and cultured for 24 hours in hESC medium (DMEM/F12, 10% XF-KSR, 10 ng/mL Activin A and 10 ng/mL Heregulin). This approach was intended to increase the contrast in OCT4 expression between undifferentiated hESCs and cells committed to differentiation. […] Stated in another way, mixed population cell cultures in hESC medium would potentially support expansion/proliferation of residual undifferentiated (hESCs), thereby show increased OCT4 gene expression, as compared to cells committed to differentiation, which would have decreased of OCT4 gene expression. Plated aggregates were immunostained for OCT4 protein and counterstained with DAPI, a nuclear stain (FIG. 12). The cell aggregates that were plated had flattened and spread out within a 24-hour period; while the centers of the aggregates were still domed. […] Brightly staining OCT4-positive cells were easily identified and distinguishable from the majority of OCT4 negative cells. OCT4-positive cells were generally found in clusters and most often within the domed area of a plated aggregate. […] Smaller aggregates residing in a larger aggregate may occur as a result of the initial stages of rotational culture, or the aggregation process, during which small clusters (primary aggregates) form initially. Aggregation of two or more primary aggregates likely leads to the formation of larger secondary aggregates, which can be 100-150 μm in diameter. Thus, it is possible that any single clusters of OCT4-positive cells exist at the center of a primary aggregate and resist differentiation. Such clusters would remain substantially undifferentiated and stain OCT4-positive. One hypothesis is that primary aggregates are specified to differentiation relative to their positioning in primary and secondary aggregates. For example, FIGS. 12A through 12E show a representative series of images, from small (primary) (e.g. FIGS. 12A and 12B) and larger (secondary) (e.g. FIGS. 12C-12E) plated aggregates containing OCT4-positive clusters (dark circles).
as §1
Additional experiments were performed using higher concentrations of compounds and extended effects of the compounds in cell culture plated aggregates in hESC medium for 24 or 72 hours before staining (FIGS. 15 and 16). […] Another group of Stage 1 differentiating cultures were processed in parallel, but treated with 10 μm chelerythrine chloride.

Substance: 22, 23-dihydroavermectin B1a+22,23-dihydroavermectin B1b [Ivermectin]
- Typical gene expression levels for Stages 3, 4 and 5 cells (NKX6.1, PTF1A, NGN3, NKX2.2) ([1]; Q-PCR d2-d13): normal
- survival, growth and/or proliferation of pancreatic endoderm differentiations (pancreatic endoderm viability) ([1]; differentiated to end of Stage 4): did not affect pancreatic endoderm viability
- EC50 [2]: 170 nM
- intensity for OCT4 staining [3]: significantly decreased
